Test results taken from ChEMBL document CHEMBL1201862, “PubChem BioAssay data set” (2004).
Calls of active or inactive are those of the source.

Key:
Bcl-2-like protein 10 = molecular target: T1, Bcl-2-like protein 10 (Homo sapiens, UniProt Q9HD36); experiment: Concentration-response of Bcl-B inhibitors by biochemical FP with TR3 (AID 1243); type: functional
T1 sequence (Q9HD36 whole entry): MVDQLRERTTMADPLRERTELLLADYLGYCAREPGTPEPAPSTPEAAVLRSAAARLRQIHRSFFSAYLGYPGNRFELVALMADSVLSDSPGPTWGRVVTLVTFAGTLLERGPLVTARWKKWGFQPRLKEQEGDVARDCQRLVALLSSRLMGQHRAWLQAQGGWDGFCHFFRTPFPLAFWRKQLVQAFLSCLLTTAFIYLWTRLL

[1] = molecular target: Glucose-6-phosphate 1-dehydrogenase (Homo sapiens, UniProt P11413); experiment: inhibition of Homo sapiens G6PD, dose series – biochemical, fluorescence, selectivity assay for P. falciparum G6PD inhibitor project, dose response (AID 504792); type: functional
[2] = Luminescence-based counterscreen assay for KLF5 inhibitors: dose response cell-based high throughput screening assay to identify cytotoxic compounds using the IEC-6 intestinal epithelial cell line. [Related pubchem assays: 1700 (Primary screen.), 1834 (Confirmation screen.), 1858 (Summary AID.), 1905 (Counterscreen.)]; type: functional
[3] = blockers of HIV-1 ZM109 envelope-driven cell-cell fusion – HeLa effector, CEM target cells, luciferase, cherry-pick, dose response (AID 652058); type: functional, cell-based;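 further: luciferase signal from HIV-1 Env mediated cell-cell fusion of effector and target cells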
Vero = experiment: cells; type: functional; settings: Chlorocebus sabaeus
[4] = molecular target: T2, Microphthalmia-associated transcription factor (Homo sapiens, UniProt O75030); experiment: reducers of TRPM1 reporter luminescence, concentration series – cell-based, SK-MEL-5, cherry-picked, set 3, MITF inhibitor project, dose response (AID 493073); type: functional;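 further: SK-MEL-5 melanoma cells with luciferase driven by the MITF target TRPM1 promoter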
T2 sequence (O75030 whole entry): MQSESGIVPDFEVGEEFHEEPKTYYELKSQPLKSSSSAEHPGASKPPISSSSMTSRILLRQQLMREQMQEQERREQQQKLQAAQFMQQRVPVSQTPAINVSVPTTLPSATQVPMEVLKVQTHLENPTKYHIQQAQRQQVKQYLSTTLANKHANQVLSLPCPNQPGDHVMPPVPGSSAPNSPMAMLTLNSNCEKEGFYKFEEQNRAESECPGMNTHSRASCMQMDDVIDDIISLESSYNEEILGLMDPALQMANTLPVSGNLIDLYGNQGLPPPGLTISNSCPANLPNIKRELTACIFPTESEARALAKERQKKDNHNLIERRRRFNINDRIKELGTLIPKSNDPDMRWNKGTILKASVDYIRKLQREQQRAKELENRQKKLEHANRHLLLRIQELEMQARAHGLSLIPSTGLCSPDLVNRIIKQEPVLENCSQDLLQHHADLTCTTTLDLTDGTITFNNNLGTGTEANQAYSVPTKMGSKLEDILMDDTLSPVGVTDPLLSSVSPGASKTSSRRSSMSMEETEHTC

[5] = molecular target: T3, Long-chain-fatty-acid--AMP ligase FadD28 (Mycobacterium tuberculosis, UniProt P9WQ59); experiment: Fluorescence polarization aasay to screen for inhibitors that compete for the binding of FadD28 to a bisubstrate Measured in Biochemical System Using Plate Reader - 2147-01_Inhibitor_Dose_CherryPick_Activity.; type: functional, Mycobacterium tuberculosis H37Rv
T3 sequence (P9WQ59 whole entry): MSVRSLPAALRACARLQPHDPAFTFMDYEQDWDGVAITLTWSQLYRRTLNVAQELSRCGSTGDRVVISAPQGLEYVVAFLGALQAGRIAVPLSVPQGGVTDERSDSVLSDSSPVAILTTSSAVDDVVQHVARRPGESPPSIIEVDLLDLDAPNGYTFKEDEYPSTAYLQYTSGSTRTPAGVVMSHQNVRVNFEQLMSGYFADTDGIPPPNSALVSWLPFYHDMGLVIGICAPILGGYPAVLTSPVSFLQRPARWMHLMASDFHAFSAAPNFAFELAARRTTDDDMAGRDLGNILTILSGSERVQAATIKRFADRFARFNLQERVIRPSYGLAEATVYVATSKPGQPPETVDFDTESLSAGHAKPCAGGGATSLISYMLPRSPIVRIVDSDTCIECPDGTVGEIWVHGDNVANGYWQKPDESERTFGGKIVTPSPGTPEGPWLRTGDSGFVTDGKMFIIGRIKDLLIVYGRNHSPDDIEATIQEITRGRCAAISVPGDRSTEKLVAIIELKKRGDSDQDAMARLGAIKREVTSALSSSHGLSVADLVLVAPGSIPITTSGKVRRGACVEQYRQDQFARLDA

[6] = off-target signal loss in HeLa-CEM21 co-culture – HeLa F-luc CTL cells, cherry-picked, counter-screen for HIV-1 Env fusion inhibitor project, dose response (AID 652040); type: functional, cell-based;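 further: potency for signal decrease marking cytotoxic or nonspecific inhibition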
[7] = HIV-1 AD8 envelope cell-cell fusion blockers – cherry-pick, dose response (AID 652062); type: functional, cell-based;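 further: luciferase signal from cell-cell fusion driven by HIV-1 clade B AD8 Env; potency is for inhibitors of fusion seen as a drop in luminescence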
[8] = blockers of HIV-1 envelope-mediated cell-cell fusion – cherry-pick, dose response (AID 652057); type: functional, cell-based
[9] = viability loss in CEM21 cells – cell-based, CellTiter-Glo luminescence, cherry-picked, cytotoxicity control for viral fusion inhibitor project, dose response (AID 652042); type: functional;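 further: potency for signal decrease meaning cytotoxicity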
[10] = viability of uninfected HEp-2 cells – cell-based, HTS, cytotoxicity control for RSV inhibitor project, dose response (AID 2410); type: functional; settings: human respiratory syncytial virus

Chain of Glucose-6-phosphate 1-dehydrogenase (P11413 whole entry): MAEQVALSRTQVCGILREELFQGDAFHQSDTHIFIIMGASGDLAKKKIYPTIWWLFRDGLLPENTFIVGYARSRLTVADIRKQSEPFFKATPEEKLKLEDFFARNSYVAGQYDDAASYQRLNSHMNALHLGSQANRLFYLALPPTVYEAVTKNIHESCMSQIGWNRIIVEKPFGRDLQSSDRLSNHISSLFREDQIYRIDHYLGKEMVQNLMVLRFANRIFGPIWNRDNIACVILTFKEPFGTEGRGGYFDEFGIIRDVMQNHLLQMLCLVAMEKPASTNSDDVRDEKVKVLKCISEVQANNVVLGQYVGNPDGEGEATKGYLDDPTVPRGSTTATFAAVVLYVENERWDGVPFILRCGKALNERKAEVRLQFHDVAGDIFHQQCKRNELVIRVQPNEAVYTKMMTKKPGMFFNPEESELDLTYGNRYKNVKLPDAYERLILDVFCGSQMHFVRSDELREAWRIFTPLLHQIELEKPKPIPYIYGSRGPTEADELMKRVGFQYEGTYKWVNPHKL

## Cc1ccc(C)n1-c1ccccc1C(=O)O
Bcl-2-like protein 10
  EC50: 620 nM (active)

## CC(C)(C)c1ccc(C(=O)Nc2sc3c(c2C(=O)O)CCC3)cc1
[1]
  IC50: > 80 µM (inactive)
[2]
  IC50: > 39.8 µM (not active)
[3]
  AC50: 1.36 µM (active)
Vero
  CC50: > 25 µM (active)
[4]
  AC50: 2.09 µM (active)
[5]
  AC50: > 100 µM (inactive)
[6]
  AC50: 4.43 µM (active)
[7]
  AC50: 786 nM (active)
[8]
  AC50: 2.21 µM (active)
[9]
  AC50: 66.1 µM (active)
[10]
  CC50: 6.97 µM (active)
